Reference: patent US20190022117A1, “COMBINATION THERAPY” (NuCana plc, priority 2015, published 2019)
Where two headings read alike, the source gives them in different places.

Tests used:
SKOV3 cells = experiment: Sulforhodamine B (SRB) assay, single agent; assay type: cell-based; conditions: 24 hours exposure, SRB assay on day 4
Experimental: SKOV3 cells were purchased from American Type Culture Collection (ATCC). They were cultured at 37° C. and 5% CO2 in Gibco™ RMPI Medium 1640+GlutaMAX™-I (Life Technologies; 61870-010) with 10% Gibco™ FBS (Life Technologies; 10270-106) and 1% Gibco™ Penicillin-Streptomycin (Life Technologies; Ser. No. 15/140,122), known as complete medium, in a cell culture flask. Cisplatin was purchased from TEVA UK Limited (PL 00289/1146). Fluvastatin and Sulforaphane were both purchased from Merck Millipore Corporation (Catalogue numbers 344096 and 574215 respectively). (S)-NUC-1031 was provided by NuCana® Ltd.
SKOV3 cells were plated at 250 cells in 200 μl per well in the middle 60 wells of Costar® 3596 96-well plates, with the outer 36 wells filled with 200 μl PBS each. The cells were allowed to grow in complete medium for 48 hours before different drug compounds were added in. For single agent, cisplatin, (S)-NUC-1031, fluvastatin and sulforaphane in complete medium at 10 different concentrations were added into the middle 60 wells (Day 0). Each concentration was loaded in sextuplicate. Cells were exposed to the compounds for 24 hours and the compounds were replaced by pure complete medium. The experiment with fluvastatin was repeated with 4-day exposure instead of 24 hours. The plates were fixed with 50 μl 25% TCA solution at 4° C. for 60 minutes on day 4 after the drug compounds were added for Sulforhodamine B assay (see below).
After adding the TCA solution, the plates were washed under running tap water 10 times and were allowed to dry in the oven at 50° C. The cells were then stained with 50 μl SRB dye, and the dye was washed off with 1% glacial acetic acid for 4 times 30 minutes after SRB addition. The plates were then dried in the oven. SRB dye was allowed to dissolve in 150 μl 10 mM Tris buffer solution for 60 minutes on a rocker. The plates were read on Biohit BP800 Microplate Reader (Biohit Healthcare) and the absorbance was measured at 540 nm. […]

[1] = ProGem1 clinical study (NUC-1031 alone), plasma pharmacokinetics; assay type: in vivo, human
Description: (§1) ProGem1 was a first-time-in-human (FTIH), phase I, open label, two stage study to investigate the safety, tolerability, clinical efficacy, pharmacokinetics (PK) and pharmacodynamics (PD) of NUC-1031 given in two parallel dosing schedules in subjects with advanced solid malignancies (EudraCT Number: 2011-005232-26). Subjects had the following tumour types at study entry: colorectal cancer (7 subjects), unknown primary (3), ovarian cancer (12), breast cancer (4), pancreatic cancer (9), cholangiocarcinoma (7), endometrial cancer (3), cervical cancer (2), lung cancer (7), mesothelioma (3), oesophageal cancer (3), cancer of the fallopian tube (1), trophoblast (1), renal cancer (1), gastric cancer (1), anal cancer (1), cancer of the thymus (1) and osteosarcoma (1).

OVCAR-3 = experiment: CellTiter-Glo cytotoxicity assay, single agents (Stage 1); assay type: cell-based; conditions: CTG assay 72 h; for IC50: Homo sapiens
Experimental: (§2) A2780, SK-OV-3, OVCAR-3, NCI-H460, NCI-H1975, NCI-H2122, 5637 and HT1376 were cultured in RPMI Medium 1640 (Invitrogen-22400105) supplemented with 10% fetal bovine serum (FBS; Invitrogen-10099141). All the cell lines were maintained in a humidified incubator at 37° C. with 5% CO2. Cell culture media and supplements were purchased from Invitrogen, and tissue culture flasks were purchased from Corning, 96-well plates and 384-well plates were purchased from Greiner. CellTiter-Glo Luminescent Cell Viability Assay kits were purchased from Promega (Promega-G7573), cells counter Vi-Cell was purchased from Beckman, detection instrument Envision was purchased from PerkinElmer.
(§3) Paclitaxcel (used as a reference) and cisplatin were purchased from SELLECK, and they were of highest purity available. All compounds attained solubility in DMSO and when diluted into culture media. DMSO, compounds solutions and culture media were warmed to 37° C. for the solution preparation and dilutions.
(§4) Eight cell lines were allowed to adhere to 96-well plates overnight (100 μL/well), for drug treatments with 3.16 fold dilution, 9 dose points, triplicates or vehicle control, compound stock solutions were prepared in DMSO and added to the wells to give the indicated final drug concentrations. Final DMSO concentration was 0.5%. Cellular ATP concentrations were assessed by using the CellTiter-Glo Cell Viability Assay as per the manufacturer's instructions 72 h after drug addition.
(§5) In Stage 1 the IC50 (using 5 or more concentrations) of each individual compound (cisplatin, gemcitabine and NUC-1031) in the relevant cell lines was determined.

NCI-H460 = experiment: as above; assay type: cell-based; conditions: CTG assay 72 h; for IC50: Homo sapiens
Experimental: as §2, §3, §4, §5

NCI-H1975 = experiment: as above; assay type: cell-based; conditions: CTG assay 72 h; for IC50: Homo sapiens
Experimental: as §2, §3, §4, §5

A2780 = experiment: as above; assay type: cell-based; conditions: CTG assay 72 h; for IC50: Homo sapiens
Experimental: as §2, §3, §4, §5

HT1376 = experiment: as above; assay type: cell-based; conditions: for IC50: Homo sapiens, HT-1376, CTG assay 72 h
Experimental: as §2, §3, §4, §5

SK-OV3 = experiment: as above; assay type: cell-based; conditions: for IC50: Homo sapiens, SK-OV-3, CTG assay 72 h
Experimental: as §2, §3, §4, §5

5637 = experiment: as above; assay type: cell-based; conditions: CTG assay 72 h
Experimental: as §2, §3, §4, §5

[2] = ProGem1 clinical study (NUC-1031 alone), intracellular dFdCTP pharmacokinetics; assay type: in vivo, human; conditions: ProGem1 (n = 67), NUC-1031 as a single agent; no normalisation
Description: as §1

[3] = absolute IC50, read-out: Ab IC50

In the case of C[C@H](NP(=O)(OC[C@H]1O[C@@H](n2ccc(N)nc2=O)C(F)(F)[C@H]1O)Oc1ccccc1)C(=O)OCc1ccccc1 (stereo partly drawn) [NUC-1031, 2′-Deoxy-2′,2′-difluoro-D-cytidine-5′-O-[phenyl (benzoxy-L-alaninyl)] phosphate], the IC50 (SKOV3 cells) is reported as “could not be calculated due to unobservable inhibitory effects”, the “levels of the metabolite dFdU relative to gemcitabine” value ([1]; ProGem1, compared with levels normally associated with gemcitabine) is reported as “less than half” and the clearance ([1]; human, plasma, ProGem1 (n = 67), NUC-1031 as a single agent) is reported as 86.7 mL/min. The Cmax ([1]; human, plasma, ProGem1 (n = 67), NUC-1031 as a single agent, no normalisation) was 66.5 µg/mL, the AUC(0-t) ([1]; human, plasma, ProGem1 (n = 67), NUC-1031 as a single agent, no normalisation, read-out: Mean AUC0-24, plasma NUC-1031) was 66500 ng·h/mL and the half-life ([1]; human, plasma, ProGem1 (n = 67), NUC-1031 as a single agent, read-out: Mean terminal t1/2, plasma NUC-1031 (converted)) was 54 min. For the same compound, the Tmax ([1]; human, plasma, ProGem1 (n = 67), NUC-1031 as a single agent, read-out: Median Tmax, plasma NUC-1031) was 30 min, the “Max Inhibition_%” value (OVCAR-3) was 11.76% and the IC50 (OVCAR-3; [3]) was > 1980 nM. For the same compound, the IC50 (OVCAR-3; relative IC50, read-out: IC50) was 200 nM, the “Max Inhibition_%” value (NCI-H460) was 91.98% and the IC50 (NCI-H460; [3]) was 40 nM. For the same compound, the IC50 (NCI-H460; relative IC50, read-out: IC50) was 40 nM, the “Max Inhibition_%” value (NCI-H1975) was 37.91% and the IC50 (NCI-H1975; [3]) was > 1980 nM. The IC50 (NCI-H1975; relative IC50, read-out: IC50) was 370 nM, the “Max Inhibition_%” value (A2780) was 79.15% and the IC50 (A2780; [3]) was 25 nM. For the same compound, the IC50 (A2780; relative IC50, read-out: IC50) was 16 nM, the “Max Inhibition_%” value (HT1376; CTG assay 72 h) was −2.54% and the IC50 (HT1376; [3]) was > 1980 nM. The IC50 (HT1376; relative IC50, read-out: IC50) was > 1980 nM, the “Max Inhibition_%” value (SK-OV3; CTG assay 72 h) was 61.59% and the IC50 (SK-OV3; [3]) was 70 nM. For the same compound, the IC50 (SK-OV3; relative IC50, read-out: IC50) was 60 nM, the “Max Inhibition_%” value 5637 was 77.88% and the IC50 5637; [3] was 200 nM. The IC50 (5637; relative IC50, read-out: IC50) was 120 nM, the “Mean AUC0-24, intracellular dFdCTP” value [2] was 1379.0 pmol/million cells · hr and the “Mean Cmax, intracellular dFdCTP” value [2] was 391.8 pmol/million cells.
